Experiments:
[1] = test system: SNU16 cells; experiment: Inhibition of proliferation of SNU16 cells (CCK-8); type: cell-based; conditions: Homo sapiens, SNU-16, 72 h; for inhibition at 0.01 µM: 10 nM; for inhibition at 0.01 µM / inhibition at 0.1 µM / inhibition at 1 µM: 72 h, read-out: Inhibition ratio (%); for inhibition at 0.1 µM: 100 nM; for inhibition at 1 µM: 1000 nM
Experimental: The inhibitory effect on proliferation of SNU16 cells of a compound was examined by CCK-8 Cell Counting Kit (Dojindo). The steps are as follows: SNUI 6 cells at Logarithmic growth phase were seeded in a 96-well culture plate at appropriate density, 90 ul for each well. After cultured overnight, different concentrations of drugs were added and treated for 72 h, while solvent control well was set (negative control). After 72 h, the influence of the compound on the proliferation of cells was observed by CCK-8 cell counting kit (Dojindo). 10 μL of CCK-8 reagent was added to each well. After incubated for 2-4 hours in a 37° C. incubator, the plate was read with SpectraMax 190 microplate reader at wavelength 450 nm.
(§1) The IC50 values were obtained by four-parameter regression analysis using the software supplied with the microplate reader.

[2] = biological target: FGFR1 kinase domain recombinant protein (Homo sapiens (Human), UniProt P11362); experiment: Inhibition of receptor tyrosine kinase FGFR1 activity (ELISA); type: biochemical; conditions: for inhibition at 0.1 µM: 1 h, read-out: Inhibition ratio (%) @ 0.1 μM
Sequence of FGFR1 kinase domain recombinant protein (P11362 478-767): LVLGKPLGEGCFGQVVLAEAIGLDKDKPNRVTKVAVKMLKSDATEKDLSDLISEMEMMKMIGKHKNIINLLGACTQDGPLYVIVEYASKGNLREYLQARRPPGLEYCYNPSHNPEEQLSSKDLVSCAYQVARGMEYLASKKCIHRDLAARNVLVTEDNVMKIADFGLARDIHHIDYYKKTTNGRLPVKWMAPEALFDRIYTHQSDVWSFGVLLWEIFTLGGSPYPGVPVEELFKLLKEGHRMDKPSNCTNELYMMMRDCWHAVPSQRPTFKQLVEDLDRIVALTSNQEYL
Experimental: 1. Preliminary Evaluation Inhibition on Receptor Tyrosine Kinase FGFR1 Activity of Compound
1. […] The liquid from the well was discarded. The plate was washed for three times with T-PBS (0.1% Tween-20 in potassium-free PBS, 200 μL/well), 5 minutes for each time. The elisa plate was dried in 37° C. dryer for 1-2 hours.
2. 49 μL of ATP solution diluted in reaction buffer (50 mM HEPES pH 7.4, 50 mM MgCl2, 0.5 mM MnCl2, 0.2 mM Na3VO4, 1 mM DTT) was added into each well, and 1 μL of the test compound was added to each well, and then 50 μL of FGFR1 kinase domain recombinant protein diluted in reaction buffer was added to initiate the reaction, and two control wells without ATP were required for each experiment. The reaction was performed on a Shaker (100 rpm) at 37° C. for 1 hour. The liquid from the well was discarded, and the plate was washed with T-PBS for three times.
3. The antibody PY99 dilution (antibody diluted 1:500 in T-PBS with BSA 5 mg/mL) was added at 100 μL/well, and shaken for 0.5 hours on a 37° C. shaker. The liquid from the well was discarded, and the plate was washed with T-PBS for three times.
4. The horseradish peroxidase-labeled goat anti-mouse second antibody dilution (antibody diluted 1:2000 in T-PBS with BSA 5 mg/mL) was added at 100 μL/well, and shaken for 0.5 hours on a 37° C. shaker. The liquid from the well was discarded, and the plate was washed with T-PBS for three times.
5. 2 mg/mL OPD coloration solution (diluted with 0.1 M citric acid-sodium citrate buffer containing 0.03% H2O2 (pH=5.4)) was added at 100 μL/well, and reacted for 1-10 minutes at 25° C. in darkness.
6. The reaction was quenched with 50 μL/well of 2M H2SO4, and the plate was read using a tunable microplate microplate reader VERSAmax at 490 nm.
as §1

[3] = test system: human gastric cancer SNU-16 subcutaneously transplanted tumor; experiment: Growth of subcutaneously transplanted tumor in human gastric cancer SNU-16 nude mice; type: in vivo
[4] = test system: human lung cancer NCI-H1581 subcutaneously transplanted tumor; experiment: Growth of subcutaneously transplanted tumor in human lung cancer NCI-H1581 nude mice
Experimental: The cell strain was inoculated in the right axilla of the nude mice, and the amount of cells inoculated was 5×10^6/mouse to form transplanted tumor, which was directly inoculated and used.
The tumor tissue in the prosperous growth period was cut into 1.5 mm^3, and inoculated subcutaneously in the right axilla of the nude mice under aseptic conditions. The diameter of the transplanted tumor in the nude mice was measured with a vernier caliper, and the animals were randomly grouped when the average volume of tumors was about 150-160 mm^3. […] The solvent control group was given an equal amount of water for injection. The diameter of the transplanted tumor was measured twice a week during the entire experiment, and the body weight of the mice was also weighed. The calculation formula of tumor volume (TV) is: TV=1/2×a×b^2, where a and b respectively represent the length and width of the tumor. The relative tumor volume (RTV) was calculated based on the measured results and the formula was: RTV=Vt/V0, where V0 is the tumor volume measured at grouping and dosing (d0), and Vt is the tumor volume at each measurement.

[5] = test system: human gastric cancer SNU-16 subcutaneously transplanted tumor; experiment: Growth of subcutaneously transplanted tumor in human gastric cancer SNU-16 nude mice; type: in vivo; remark: listed apart in the source
Experimental: The human gastric cancer SNU-16 cell strain was preserved in our laboratory.
S10 groups (30 mg/kg and 10 mg/kg) were orally administered once a day for 21 days; AZD4547 group (10 mg/kg) was administered orally once a day for 21 days; solvent control group was given the same amount of water for injection.

Row | SMILES | IC50 [2] [nM] | inhibition at 0.1 µM [2] [%] | inhibition at 0.01 µM [1] [%] | inhibition at 0.1 µM [1] [%] | inhibition at 1 µM [1] [%] | further results
1 | CNC(=O)c1cccc2cc(Oc3ccnc(NC(=O)c4ccc(C5CCNCC5)cc4)c3)ccc12 [Compound S6] | < 10 | 84 | 45.1 | 63.5 | 59.6 | IC50 [1]: 15.9 nM
2 | CNC(=O)c1cccc2cc(Oc3ccnc(NC(=O)c4ccc(N5CCN(C)CC5)cc4)c3)ccc12 [Compound S5] |  | 87 | 60.4 | 60.1 | 57.8 | IC50 [1]: 13.8 nM
3 | CNC(=O)c1cccc2cc(Oc3ccnc(NC(=O)c4ccc(OCCN5CCCC5)cc4)c3)ccc12 [Compound S4] | < 10 | 74 | 55.3 | 61 | 59 | IC50 [1]: 29.2 nM
4 | CNC(=O)c1cccc2cc(Oc3ccnc(NC(=O)c4ccc(N5CCOCC5)cc4)c3)ccc12 [Compound S7] | < 10 | 91 | 30.1 | 53.3 | 60.5 | 
5 | CNC(=O)c1cccc2cc(Oc3ccnc(NC(=O)c4ccc(OCC5(N)CC5)cc4)c3)ccc12 [Compound S3] | < 10 | 90 |  |  |  | 
6 | CNC(=O)n1ccc2cc(Oc3ccnc(NC(=O)c4ccc(C5CCN(CCO)CC5)cc4)c3)c(OCCOC)cc21 [Compound E7090, reference compound] |  |  |  |  |  | Relative tumor proliferation rate T/C (%) ([3]; 6.25 mg/Kg): 49%; Relative tumor proliferation rate T/C (%) ([3]; 25 mg/Kg): 17%; Relative tumor proliferation rate T/C (%) ([3]; 50 mg/Kg): 18%; Relative tumor proliferation rate T/C (%) ([4]; 6.25 mg/Kg): 46%; Relative tumor proliferation rate T/C (%) ([4]; 12.5 mg/Kg): 21%; Relative tumor proliferation rate T/C (%) ([4]; 25 mg/Kg): 13%; Relative tumor proliferation rate T/C (%) ([4]; 50 mg/Kg): 8%; Relative tumor proliferation rate T/C (%) ([5]; 12.5 mg/Kg): 26%
7 | CNC(=O)c1cccc2cc(Oc3ccnc(NC(=O)c4ccc(N5CCNC(C)C5)cc4)c3)ccc12 (centres unmarked) [Compound S9] | < 10 | 95 | 70.9 | 73.2 | 73.3 | IC50 [1]: 13.8 nM
8 | CNC(=O)c1cccc2cc(Oc3ccnc(NC(=O)c4ccc(OCCN5CC(F)C5)cc4)c3)ccc12 [Compound S1] | < 100 | 72 |  |  |  | 
9 | COc1cc(CCc2cc(NC(=O)c3ccc(N4CC(C)NC(C)C4)cc3)n[nH]2)cc(OC)c1 (centres unmarked) [AZD4547, reference compound] |  |  |  |  |  | Body weight (g) d0 ([5]; 10 mg/kg po qd/21, d0): 20.1 g; TV (mm^3, mean ± SD) d0 ([5]; 10 mg/kg po qd/21, d0): 103 ± 18 mm^3; Body weight (g) d21 ([5]; 10 mg/kg po qd/21, d21): 22.4 g; RTV (mean ± SD) ([5]; 10 mg/kg po qd/21, d21): 8.21 ± 3.91; T/C (%) ([5]; 10 mg/kg po qd/21, d21): 59.80%; TV (mm^3, mean ± SD) d21 ([5]; 10 mg/kg po qd/21, d21): 790 ± 247 mm^3
10 | CNC(=O)c1cccc2cc(Oc3ccnc(NC(=O)c4ccc(OCCN5CC(F)(F)C5)cc4)c3)ccc12 [Compound S2] | < 100 | 80 |  |  |  | 
11 | CNC(=O)c1cccc2cc(Oc3ccnc(NC(=O)c4ccc(N5CC(C)OC(C)C5)cc4)c3)ccc12 (centres unmarked) [Compound S8] | < 10 | 93 | 23.2 | 36.3 | 48.1 | 

Now from value to compound, other results behind:

Row | IC50 [2] [nM] | inhibition at 0.1 µM [2] [%] | SMILES | inhibition at 0.01 µM [1] [%] | inhibition at 0.1 µM [1] [%] | inhibition at 1 µM [1] [%] | further results
12 | < 1000 | 44 | CNC(=O)c1cccc2cc(Oc3ccnc(NC(=O)c4ccc(CN5CCN(C)CC5)c(C(F)(F)F)c4)c3)ccc12 [Compound S12] |  |  |  | 
13 | < 100 | 65 | CNC(=O)c1cccc2cc(Oc3ccnc(NC(=O)c4coc(N5CCN(C)CC5)n4)c3)ccc12 [Compound S18] |  |  |  | 
14 | > 1000 | 23 | CNC(=O)c1cccc2cc(Oc3ccnc(NC(=O)c4ccc(N5C[C@@H](C)N[C@@H](C)C5)cc4F)c3)ccc12 [Compound S13] |  |  |  | 
15 | < 10 | 87 | COC(=O)c1cccc2cc(Oc3ccnc(NC(=O)c4ccc(N5C[C@@H](C)N[C@@H](C)C5)cc4)c3)ccc12 [Compound S24] |  |  |  | 
16 | < 10 | 94 | CNC(=O)c1cccc2cc(Oc3ccnc(NC(=O)c4ccc(N5C[C@@H](C)N[C@@H](C)C5)cc4)n3)ccc12 [Compound S20] |  |  |  | 
17 | < 1000 | 40 | CNC(=O)c1cccc2cc(Oc3ccnc(NC(=O)c4ccc(N5C[C@@H](C)N[C@@H](C)C5)cc4OC)c3)ccc12 [Compound S14] |  |  |  | 
18 | < 10 | 89 | CNC(=O)c1cccc2cc(Oc3ccnc(NC(=O)c4ccc(N5CCN(CCO)CC5)cc4)c3)ccc12 [Compound S11] |  |  |  | 
19 | < 100 | 58 | CNC(=O)c1cccc2cc(Oc3ccnc(NC(=O)c4cnc(N5C[C@@H](C)N[C@@H](C)C5)nc4)c3)ccc12 [Compound S16] | 26.4 | 55.3 | 61.6 | 
20 | < 100 | 59 | CNC(=O)c1cccc2cc(Oc3ccnc(NC(=O)c4csc(N5CCN(C)CC5)n4)c3)ccc12 [Compound S17] |  |  |  | 
21 | < 100 | 71 | CNC(=O)c1cccc2cc(Oc3ccnc(NC(=O)c4ccc(N5C[C@@H](C)N[C@@H](C)C5)cc4C)c3)ccc12 [Compound S15] |  |  |  | 
22 | < 10 | 86 | CNC(=O)c1cccc2cc(Oc3ccnc(NC(=O)c4ccc(NCC5(O)CCOCC5)cc4)c3)ccc12 [Compound S23] |  |  |  | 
23 | < 10 | 86 | CNC(=O)c1cccc2cc(Oc3ccnc(NC(=O)c4cnn(CCO)c4)c3)ccc12 [Compound S19] |  |  |  | 

— patent US11834432B2, “Substituted amino six-membered nitric heterocyclic ring compound and preparation and use thereof” (SHANGHAI INSTITUTE OF MATERIA MEDICA, CHINESE ACADEMY OF …, priority 2016, dated 2023)
